# Patent publication US20240246960A1 (adMare Therapeutics Society, priority 2021, published 2024)
# Where two headings read alike, the source gives them in different places.
# Tests used:
# [1] = biological target: T1, pDNA-PK ser2056 induction in HCT116 spheroids (Homo sapiens, UniProt P78527); assay: Multicellular tumour spheroid + radiation, pDNA-PK inhibition, HCT116; format: cell-based; conditions: 20 Gy
# T1 construct: endogenous in cells; host or cells: HCT116 multicellular tumour spheroids
# Method in brief: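 EC50 (μM) is concentration halving radiation-induced pDNA-PK ser2056, scored by fluorescent immunostaining of cryosections 2 h after 20 Gy. HCT116 tumour spheroids (~0.5 mm, stirred, 20% O2/5% CO2, 37 °C) exposed to serial dilutions from 10 or 5 μM to 3.5 nM starting 1 h before irradiation.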
# [2] = biological target: T2, DNA-PK (Homo sapiens, UniProt P78527); assay: DNA-PK Assay for Biochemical Enzymatic Inhibition (ADP Glo Kinase assay); conditions: Table 1
# T2 construct: purchased Invitrogen PR9107A
# Method in brief: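 Human DNA-PK (25 ng) preincubated 15 min with compounds (ten three-fold dilutions) in HEPES pH 7.5, MgCl2, KCl, calf thymus DNA buffer, then substrate 434.4 μM and ATP 64.4 μM (final) for 60 min at room temperature. ADP-Glo luminescence; percent inhibition fitted by four-parameter regression for IC50.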
# [3] = biological target: T3, pDNA-PK ser2056 induction in FaDU spheroids (Homo sapiens, UniProt P78527); assay: Multicellular tumour spheroid + radiation, pDNA-PK inhibition, FaDU; format: cell-based; conditions: 20 Gy
# T3 construct: host or cells: FaDu
# Description: Multicellular tumour spheroids determination of compound inhibition of pDNA-PK induction following radiation. Tumour spheroids were grown to approximately 0.5 mm in diameter and irradiated with 20 Gy in combination with inhibitor test compounds to determine their potency. Inhibitor concentration for 50% reduction in pDNA-PK induction (IC50) was determined via immunohistochemical staining in spheroid cryosections taken 2 hours following radiation. For cell survival endpoint 8 Gy radiation was used and 3 hours following radiation spheroids were dissociated, counted and plated for colony forming endpoint.
# Spheroid+radiation pDNA-PK. Radiation: 20 Gy. Drug: serial dilution 5 or 10 μM down to 3.5 nM (11 wells). Spheroids: 3-6 spheroids per well (300-500 μm diameter). 20% O2 and 5% CO2. 96 well plate format. Endpoint: fluorescent immunostain pDNA-PK ser2056 and image on microscope. Analysis: determine EC50 concentrations that decreases pDNA-PK induction […] after irradiation.
# Multicellular tumour spheroids were used to determine potency of test compounds in a 3D tissue environment using inhibition of pDNA-PK induction following radiation or cell survival as the endpoint. For the pDNA-PK endpoint HCT116 or FaDU tumour spheroids were grown to approximately 0.5 mm in diameter and irradiated with 20 Gy in combination with inhibitor test compounds to determine their potency. Experiments were carried out in 96 well plates containing 0.7 mls of MEM media containing 10% FBS and 10 mM glucose under 20% O2 & 5% CO2 at 37° C. Following dilution of compounds 1:1000 from DMSO stocks, compounds were serially diluted from 10 μM down to 3.5 nM and 5-10 spheroids added. 96 well plates were constantly stirred to avoid spheroids settling during the course of the experiment. The inhibitor concentration for 50% reduction in pDNA-PK induction (EC50) was determined via immunohistochemical staining in spheroid cryosections taken 2 hours following radiation using anti-pDNA-PK (ser 2056) and fixed immediately in formalin following sectioning. For cell survival endpoint 8 Gy radiation was used and, 3 hours following radiation, spheroids were dissociated, counted and plated for colony forming endpoint. Data presented in the table compound potency as EC50 [μM].
# [4] = biological target: T4, DNA-PK phosphorylation at Serine 2056 (Homo sapiens, UniProt P78527); assay: Cellular Assay for Inhibition of DNA-PK Phosphorylation at Serine 2056 (FaDu cells, neocarzinostatin, sandwich ELISA); format: cell-based; conditions: Table 1
# T4 construct: host or cells: FaDu
# Method in brief: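 Readout was pSer2056 and total DNA-PK, measured by sandwich ELISA on protein-normalized lysates. Prior to lysis, compound was applied to FaDu cells for 1 h (0.3% DMSO), followed by 2 h of 1 μg/mL neocarzinostatin. IC50 values were fitted from log concentration versus % inhibition normalized to DMSO and NCS controls.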
# [5] = Microsomal stability assay, mouse liver microsomes; conditions: for microsomal CLint at 0.1 uM: male, CD-1, mouse, liver microsomes, pH 7.4, Microsomal Stability Mouse Clint, 0.1 mg/mL microsomes, 0.1 uM compound
# Description: Mouse liver microsomes were obtained from a pool of 250 or more male CD-1 mice. […] Final microsomal concentration was 0.1 mg/mL and test compound concentration was 0.1 uM with a maximum of 0.01% DMSO. The test compound was pre-incubated with pooled liver microsomes in phosphate buffer (pH 7.4) for 5 min in a 37° C. shaking water bath. The reaction was initiated by adding NADPH-generating system and incubated for 0, 15, 30, 45, and 60 min. The reaction was stopped by transferring the incubation mixture to acetonitrile/methanol. Samples were then mixed and centrifuged. Supernatants were used for HPLC-MS/MS analysis. The HPLC system consisted of a binary LC pump with autosampler, a C-18 column, and a gradient. Peak areas corresponding to the test compound were recorded. The compound remaining was calculated by comparing the peak area at each time point to time zero. The half-life was calculated from the slope of the initial linear range of the logarithmic curve of compound remaining (%) vs. time, assuming first order kinetics. In addition, the intrinsic clearance (Clint) was calculated from the half-life.
# [6] = Microsomal stability assay, human liver microsomes; format: in vitro ADME
# Description: Samples were then mixed and centrifuged. Supernatants were used for HPLC-MS/MS analysis. […] Peak areas corresponding to the test compound were recorded.
# [7] = Example 7, spheroid, cell line HCT115 [sic], 20% O2, read-out: EC50 (pDNA-PK inhibition, immunohistochemical endpoint)
# [8] = Example 8, spheroid, read-out: Cell line: HCT116 Immunohistochemical endpoint pDNA-PK inhibition EC50
# [9] = Example 9 Study 2, 20% O2, read-out: Spheroid Cell line: HCT116 Immunohistochemical endpoint pDNA-PK inhibition EC50
# [10] = Example 8, spheroid, read-out: Cell line: FaDU Immunohistochemical endpoint pDNA-PK inhibition EC50
# [11] = Example 9 Study 2, 20% O2, read-out: Spheroid Cell line: FaDU Immunohistochemical endpoint pDNA-PK inhibition EC50
"EC50 [1, 7]","EC50 [1, 8]","EC50 [1, 9]",IC50 [2],"EC50 [3, 10]","EC50 [3, 11]",IC50 [4],Microsomal Stability (mouse) % rem. 60 min [5],microsomal CLint at 0.1 uM [5],Microsomal Stability (human) % rem. 60 min ([6]; 60 min),"microsomal CLint at 0.1 uM ([6]; both sexes, human, liver microsomes, pH 7.4, 0.1 mg/mL microsomes, 0.1 uM compound)",Compound
1000 to 10000 nM,1000 to 10000 nM,1000 to 10000 nM,< 0.5 nM,500 to 1000 nM,500 to 1000 nM,< 100 nM,E (% remaining = 0-25%),> 116 µL/min/mg,,,"FC(F)(F)c1cn([C@H]2CC[C@@H](Oc3nc(N4CCOCC4)cc4ncccc34)CC2)cn1 [Compound 17k, 4-(5-(((1s,4s)-4-(4-(trifluoromethyl)-1H-imidazol-1-yl)cyclohexyl)oxy)-1,6-naphthyridin-7-yl)morpholine]"
10 to 500 nM,10 to 500 nM,10 to 500 nM,< 0.5 nM,10 to 500 nM,10 to 500 nM,100 to 1000 nM,E (% remaining = 0-25%),> 116 µL/min/mg,,,"c1cnc2cc(N3CCOCC3)nc(O[C@H]3CC[C@@H](Nc4cnccn4)CC3)c2c1 [Compound 23, N-((1s,4s)-4-((7-Morpholino-1,6-naphthyridin-5-yl)oxy)cyclohexyl)pyrazin-2-amine]"
1000 to 10000 nM,1000 to 10000 nM,1000 to 10000 nM,0.5 to 1 nM,1000 to 10000 nM,1000 to 10000 nM,100 to 1000 nM,F (% remaining = 25-50%),> 116 µL/min/mg,,,"c1ccc(N[C@H]2CC[C@@H](Oc3nc(N4CCOCC4)cc4ncccc34)CC2)nc1 [Compound 25, N-((1s,4s)-4-((7-morpholino-1,6-naphthyridin-5-yl)oxy)cyclohexyl)pyridin-2-amine]"
1000 to 10000 nM,1000 to 10000 nM,1000 to 10000 nM,0.5 to 1 nM,10 to 500 nM,10 to 500 nM,100 to 1000 nM,E (% remaining = 0-25%),> 116 µL/min/mg,,,"c1cnc2cc(N3CCOCC3)nc(O[C@H]3CC[C@@H](Nc4ccncc4)CC3)c2c1 [Compound 27, N-((1s,4s)-4-((7-morpholino-1,6-naphthyridin-5-yl)oxy)cyclohexyl)pyridin-4-amine]"
1000 to 10000 nM,,1000 to 10000 nM,0.5 to 1 nM,,,100 to 1000 nM,H (% remaining = 75-100%),< 116 µL/min/mg,F (% remaining = 25-50%),> 116 µL/min/mg,"O=C(N[C@H]1CC[C@@H](Oc2nc(N3CCOCC3)cc3ncccc23)CC1)c1cccnn1 [Compound 120, N-((1s,4s)-4-((7-morpholino-1,6-naphthyridin-5-yl)oxy)cyclohexyl)pyridazine-3-carboxamide]"
